Test results reported in patent publication US20080131907A1, “ASSAYS FOR DETECTING NATIVE-STATE PROTEINS AND IDENTIFYING COMPOUNDS THAT MODULATE THE STABILITY OF NATIVE-STATE PROTEINS” (FoldRx Pharmaceuticals, Inc., priority 2006, published 2008).
Several values for one entry are separate records, joined by “and”; a condition that tells them apart may be missing. Identical values can stand only once.

Assays:
tetrameric transthyretin [1] = biological target: T1, tetrameric transthyretin (Homo sapiens, UniProt P02766); experiment: Western blotting method (urea, cross-linking, SDS-PAGE, anti-transthyretin immunoblot) of plasma samples; format: biochemical; design: human plasma samples containing transthyretin; from tissue; host or cells: human plasma (single samples or pools of donors); details: 7.2 μM, 3 day urea treatment, FIG. 4B
Description: The position of transthyretin tetramer on the immunoblot is indicated at the left of the immunoblot, and the time point at which the samples were collected for assay (0 or 3 days) are indicated above the immunoblot.

tetrameric transthyretin [2] = biological target: T1, tetrameric transthyretin; experiment: Immuno-turbidimetric assay 2: plasma + compound, urea, no cross-linking (dilution or immediate detection); details: for Stabilization of transthyretin tetramer (in words): 7.2 μM, urea for 3 days, Table 2; for Stabilization of transthyretin tetramer (in words) / Beckman Normalized / Olympus Normalized: human plasma; for Beckman Normalized / Olympus Normalized: 7.2 μM compound, 4.8 M urea; for Beckman Normalized: Beckman reagent; for Olympus Normalized: Olympus reagent
Description: In this second assay, the cross-linking step is replaced with a step of terminating denaturation (caused by the urea treatment) by dilution of the sample. Briefly, a 1 ml sample of human plasma was combined with either 1 μl of a test compound (Cmp. 1: 2-(2,6-dichloro-phenyl)-benzoxazole-6-carboxylic acid or Cmp. 2: 2-(3,5-dichloro-phenyl)-benzoxazole-6-carboxylic acid; see Published U.S. Application No. 20040152140) solubilized in DMSO or a control solution of DMSO, and the samples were incubated for 15 minutes at room temperature prior to addition of urea. The final concentration of the test compounds was 7.2 μM in DMSO. A solution of urea was added such that the final concentration of urea in the sample was 4.8 M. A 1 mL aliquot was removed immediately (no incubation (no-inc)) for dilution (see below) and the remaining 1.5 mL mixture was incubated for 3 days at room temperature (3 day) (FIG. 3). Immediately (for the no-inc) or following the three day incubation (for the 3 day samples), the samples were diluted 1:5 (four volumes diluent were added per one volume equivalent of sample). Potassium chloride (KCl) and sodium phosphate (NaPO4) were also added to the samples at final concentrations of 50 mM and 25 mM, respectively.
2 was also monitored using immuno-turbidimetric assay 2 (Example 2). Plasma samples (a pool from 16 individual donors) containing 4.6 μM transthyretin were treated with 4.6 μm, or 9.2 μm Cmp. 2, or DMSO as a negative control, for 15 minutes at room temperature. Following the incubation, urea was added to the samples resulting in a final urea concentration of 3.2 M (see FIG. 7). Aliquots were removed immediately (day 0) and after incubation at room temperature for 8, 13, 24, 32, and 48 hours. Immediate detection of transthyretin using the Bayer ADVIA prealbumin kit was performed as described by the manufacturer. For each concentration of Cmp. 2, the assay-determined transthyretin concentration at 8, 13, 24, 32, and 48 hours was divided by the assay-determined initial concentration at day 0 to yield the percent of tetramer remaining (FIG. 7).

tetrameric transthyretin [3] = biological target: T1, tetrameric transthyretin; experiment: Immuno-turbidimetric assay 1: plasma + compound, 4.8 M urea, glutaraldehyde cross-linking, Olympus OSR6175 reagent; details: for Normalized (mg/dL) transthyretin tetramer concentration: 7.2 μM compound, 40 mM glutaraldehyde
Description: Next, the immuno-turbidity assay was evaluated in human plasma samples containing transthyretin and in the presence and absence of a test compound 2-(2,6-dichloro-phenyl)-benzoxazole-6-carboxylic acid (a transthyretin stabilizing compound, see Published U.S. Application No. 20040152140). A 1 mL plasma sample was incubated with 1 μL of 2-(2,6-Dichloro-phenyl)-benzoxazole-6-carboxylic acid (solubilized in dimethyl sulfoxide (DMSO), or a control solution containing only DMSO, for 15 minutes at room temperature. The final test concentration of 2-(2,6-dichloro-phenyl)-benzoxazole-6-carboxylic acid (Cmp. 1) was 7.2 μM. Experimental (with compound) or control (only DMSO) samples were then each combined with 1.5 mL of 8 M urea to a final urea concentration of 4.8 M. A 1 mL aliquot was removed immediately (no incubation (no-inc)) for cross-linking and the remaining 1.5 mL mixture was incubated for 3 days at room temperature (3 day). Immediately for the no-inc 1 mL aliquot or following the 3 day incubation for the 3 day samples, 1 mL of the samples was cross-linked by adding 16 L of 25% (2.5 M) glutaraldehyde in water to a final concentration of 40 mM. The mixtures were incubated for 4 minutes at room temperature. The cross-linking reaction was stopped by the addition of 54 μL of 1.85 M freshly prepared sodium borohydride in 0.1 N sodium hydroxide, followed by a 5 minute incubation at room temperature. For analysis, the OSR6175 reagent was added to sample per manufacturer's instructions, and the turbidity, as a measure of the difference between incident and transmitted light, was calculated per manufacturer instruction.
To test the effect of different dosages of 2-(3,5-dichloro-phenyl)-benzoxazole-6-carboxylic acid (Cmp. 2) on transthyretin stabilization, plasma samples (a pool from 20 individual donors) containing 4.3 M transthyretin were treated with 2.2 μM, 4.3 μm, or 8.6 μm Cmp. 2, or DMSO as a negative control, for 15 minutes at room temperature. Following the incubation, the urea denaturant was added to the samples resulting in a final urea concentration of 4.8 M (see FIG. 6). As above, aliquots were removed immediately (day 0) and after incubation at room temperature for 1, 2, and 3 days. Cross-linking (glutaraldehyde) and detection of transthyretin using the Olympus OSR6175 reagent were performed as described under Example 1. For each concentration of Cmp. […]
Since the concentration of transthyretin fluctuates from day to day in an individual subject and can vary between different subjects (e.g., different patients), the efficacy of Cmp. […] Samples were then subjected to denaturation and cross-linking, and stabilized tetrameric transthyretin was measured as described above in Examples 1 and 3.

[4] = biological target: V30M transthyretin mutation, tetrameric transthyretin (Homo sapiens, UniProt P02766, V50M); experiment: Immuno-turbidimetric assay 1 on pooled plasma from familial amyloid polyneuropathy patients; format: biochemical; details: urea 24, 31 or 36, or 48 hours; 22 mg/dL transthyretin; FIG. 9
Description: The Y-axis represents the percentage of the initial (“Fraction of initial”) transthyretin tetramer concentration remaining in each sample following treatment with urea.
The samples were then subjected to denaturation for 24, 31 or 36, or 48 hours and then cross-linked (as above).

O=C(O)c1ccc2nc(-c3c(Cl)cccc3Cl)oc2c1 [Cmp. 1]
Stabilization of tetrameric transthyretin by western blot (in words) (tetrameric transthyretin [1]): almost completely stabilized
Stabilization of transthyretin tetramer (in words) (tetrameric transthyretin [2]): almost completely stabilized
Beckman Normalized (tetrameric transthyretin [2]; Day 0): 10.53 mg/dL
Olympus Normalized (tetrameric transthyretin [2]; Day 0): 22.12 mg/dL
Beckman Normalized (tetrameric transthyretin [2]; Day 3): 12.26 mg/dL
Olympus Normalized (tetrameric transthyretin [2]; Day 3): 23.45 mg/dL
Stabilization of tetrameric transthyretin (in words) (tetrameric transthyretin [3]; 7.2 μM, three-day 4.8 M urea treatment, human plasma): nearly completely stabilized
Normalized (mg/dL) transthyretin tetramer concentration (tetrameric transthyretin [3]; Day 0 (no incubation), 4.8 M urea, human plasma): 23.5 mg/dL
Normalized (mg/dL) transthyretin tetramer concentration (tetrameric transthyretin [3]; Day 3 in 4.8 M urea, human plasma): 21.9 mg/dL

O=C(O)c1ccc2nc(-c3cc(Cl)cc(Cl)c3)oc2c1 [Cmp. 2]
Stabilization of transthyretin tetramer (in words) (tetrameric transthyretin [2]): significantly stabilized
Dose dependence of tetramer stabilization (percent of tetramer remaining) (tetrameric transthyretin [2]; 4.6 or 9.2 μM, 3.2 M urea, 8-48 hours, Bayer ADVIA prealbumin kit, pooled plasma, FIG. 7): more effective than lower concentrations
Olympus Normalized (tetrameric transthyretin [2]; Day 0): 22.12 mg/dL and 23.72 mg/dL
Olympus Normalized (tetrameric transthyretin [2]; Day 3): 13.59 mg/dL
Dose dependence of tetramer stabilization (percent of tetramer remaining) (tetrameric transthyretin [3]; 2.2, 4.3, 8.6 μM, 4.8 M urea, days 1, 2, 3, pooled plasma, FIG. 6): more effective than lower concentrations
Stabilization of tetrameric transthyretin in V30M patient plasma [4]: stabilized in a dose-dependent manner
